Measured values from US11319376B2, “Combination of glucagon receptor antagonists and PI3K pathway inhibitors for the treatment of cancer” (REMD Biotherapeutics, Inc., priority 2016, dated 2022).

Assays:
[1] = biological target: CSF1R (Homo sapiens, UniProt P07333); settings: read-out: Target Selectivity (IC50) CSF1R; cited from earlier work
[2] = system: cancer patient of diverse malignancies; settings: cancer patients; cited from earlier work
[3] = biological target: ATR (Homo sapiens, UniProt Q13535); settings: read-out: Target Selectivity (IC50) ATR; cited from earlier work
Sequence of ATR (Q13535 whole entry): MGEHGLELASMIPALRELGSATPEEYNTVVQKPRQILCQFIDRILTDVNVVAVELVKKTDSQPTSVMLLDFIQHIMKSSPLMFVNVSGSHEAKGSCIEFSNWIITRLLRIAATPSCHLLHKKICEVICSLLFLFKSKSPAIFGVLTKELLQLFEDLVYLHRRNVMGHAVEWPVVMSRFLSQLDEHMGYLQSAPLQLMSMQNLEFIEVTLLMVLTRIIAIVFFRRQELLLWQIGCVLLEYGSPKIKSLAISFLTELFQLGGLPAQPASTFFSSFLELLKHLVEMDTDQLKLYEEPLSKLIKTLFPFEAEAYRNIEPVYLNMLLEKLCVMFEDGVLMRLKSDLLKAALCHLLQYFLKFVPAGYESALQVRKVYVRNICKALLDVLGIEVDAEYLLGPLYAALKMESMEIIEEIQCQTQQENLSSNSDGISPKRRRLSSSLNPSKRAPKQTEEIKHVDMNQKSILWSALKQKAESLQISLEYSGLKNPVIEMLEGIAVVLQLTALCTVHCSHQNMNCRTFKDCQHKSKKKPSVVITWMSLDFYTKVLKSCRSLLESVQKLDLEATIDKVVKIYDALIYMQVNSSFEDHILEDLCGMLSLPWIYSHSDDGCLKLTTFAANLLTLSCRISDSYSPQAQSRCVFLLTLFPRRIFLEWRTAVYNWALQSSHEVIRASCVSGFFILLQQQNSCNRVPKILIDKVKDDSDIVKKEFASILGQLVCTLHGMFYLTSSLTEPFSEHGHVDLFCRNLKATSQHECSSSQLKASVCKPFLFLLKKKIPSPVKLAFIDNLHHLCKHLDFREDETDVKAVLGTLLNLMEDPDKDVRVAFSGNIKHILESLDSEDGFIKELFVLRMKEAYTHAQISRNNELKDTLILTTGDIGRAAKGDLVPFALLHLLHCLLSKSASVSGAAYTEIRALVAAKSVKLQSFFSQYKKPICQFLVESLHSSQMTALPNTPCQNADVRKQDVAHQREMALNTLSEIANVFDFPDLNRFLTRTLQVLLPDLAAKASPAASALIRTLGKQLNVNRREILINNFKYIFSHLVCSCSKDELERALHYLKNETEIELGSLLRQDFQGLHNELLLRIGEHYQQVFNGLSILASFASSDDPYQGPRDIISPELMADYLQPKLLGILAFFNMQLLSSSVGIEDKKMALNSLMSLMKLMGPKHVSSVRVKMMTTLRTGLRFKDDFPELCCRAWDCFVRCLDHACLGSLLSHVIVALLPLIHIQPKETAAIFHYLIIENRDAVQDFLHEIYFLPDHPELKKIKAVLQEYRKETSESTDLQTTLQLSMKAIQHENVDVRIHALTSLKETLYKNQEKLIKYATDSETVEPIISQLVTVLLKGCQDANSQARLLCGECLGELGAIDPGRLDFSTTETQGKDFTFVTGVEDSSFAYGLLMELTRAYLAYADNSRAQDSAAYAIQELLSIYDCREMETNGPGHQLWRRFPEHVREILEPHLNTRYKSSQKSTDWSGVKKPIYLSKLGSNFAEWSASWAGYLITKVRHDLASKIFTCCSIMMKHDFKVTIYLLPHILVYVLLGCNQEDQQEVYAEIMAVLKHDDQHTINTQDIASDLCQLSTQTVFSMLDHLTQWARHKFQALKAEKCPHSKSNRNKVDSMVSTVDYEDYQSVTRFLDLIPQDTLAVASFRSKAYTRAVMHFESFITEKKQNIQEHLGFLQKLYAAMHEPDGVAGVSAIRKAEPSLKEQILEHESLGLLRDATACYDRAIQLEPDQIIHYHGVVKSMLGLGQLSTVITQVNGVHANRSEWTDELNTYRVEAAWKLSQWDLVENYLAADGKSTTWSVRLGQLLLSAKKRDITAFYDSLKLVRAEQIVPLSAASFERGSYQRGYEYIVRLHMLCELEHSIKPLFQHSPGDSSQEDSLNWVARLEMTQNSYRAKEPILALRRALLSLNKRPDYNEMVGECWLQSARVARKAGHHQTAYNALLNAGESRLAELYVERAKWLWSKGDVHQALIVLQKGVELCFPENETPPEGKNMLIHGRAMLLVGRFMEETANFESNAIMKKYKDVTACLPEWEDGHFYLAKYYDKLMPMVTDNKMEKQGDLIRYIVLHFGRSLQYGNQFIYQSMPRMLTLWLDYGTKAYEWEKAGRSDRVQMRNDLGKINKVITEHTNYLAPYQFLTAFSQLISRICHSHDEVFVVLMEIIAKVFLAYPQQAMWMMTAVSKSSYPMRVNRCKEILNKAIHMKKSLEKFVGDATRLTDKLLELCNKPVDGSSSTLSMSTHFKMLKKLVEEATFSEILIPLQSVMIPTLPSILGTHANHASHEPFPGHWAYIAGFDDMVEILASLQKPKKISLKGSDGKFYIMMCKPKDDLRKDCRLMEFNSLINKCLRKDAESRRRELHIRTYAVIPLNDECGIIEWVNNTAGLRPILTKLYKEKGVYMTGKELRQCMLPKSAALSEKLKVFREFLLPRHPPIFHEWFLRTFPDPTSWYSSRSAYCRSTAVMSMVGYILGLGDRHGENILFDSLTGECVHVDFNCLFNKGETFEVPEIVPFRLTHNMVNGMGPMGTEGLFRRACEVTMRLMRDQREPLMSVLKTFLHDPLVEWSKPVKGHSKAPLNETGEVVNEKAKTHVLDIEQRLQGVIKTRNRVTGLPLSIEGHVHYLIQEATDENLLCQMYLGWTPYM
Sequence of ATR (Q8WXE1 whole entry partner): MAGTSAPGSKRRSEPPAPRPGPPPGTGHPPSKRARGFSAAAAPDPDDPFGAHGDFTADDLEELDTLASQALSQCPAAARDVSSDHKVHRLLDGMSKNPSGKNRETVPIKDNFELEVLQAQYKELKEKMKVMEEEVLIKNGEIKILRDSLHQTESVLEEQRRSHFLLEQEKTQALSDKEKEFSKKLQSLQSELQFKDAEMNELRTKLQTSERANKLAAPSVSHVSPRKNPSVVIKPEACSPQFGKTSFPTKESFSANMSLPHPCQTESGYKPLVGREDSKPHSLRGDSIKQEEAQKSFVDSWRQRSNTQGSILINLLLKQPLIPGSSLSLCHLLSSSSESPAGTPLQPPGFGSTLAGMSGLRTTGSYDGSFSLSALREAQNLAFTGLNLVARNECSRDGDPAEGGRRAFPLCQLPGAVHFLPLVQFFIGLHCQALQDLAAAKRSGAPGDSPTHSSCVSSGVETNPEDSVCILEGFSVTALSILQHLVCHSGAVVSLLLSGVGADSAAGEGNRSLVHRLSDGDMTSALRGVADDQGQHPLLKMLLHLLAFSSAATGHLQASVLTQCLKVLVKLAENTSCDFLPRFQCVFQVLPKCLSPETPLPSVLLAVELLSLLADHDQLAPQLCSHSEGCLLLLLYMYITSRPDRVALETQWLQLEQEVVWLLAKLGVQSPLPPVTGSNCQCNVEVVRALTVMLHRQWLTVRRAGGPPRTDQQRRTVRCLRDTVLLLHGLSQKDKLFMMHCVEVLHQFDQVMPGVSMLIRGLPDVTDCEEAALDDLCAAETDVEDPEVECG

[4] = system: C57BL/6 mice; test: Effect of REMD2.59c pretreatment on induction of hyperglycemia by PI3K/Akt pathway inhibitors in C57BL/6 fed mice; type: in vivo, mouse; settings: fed blood glucose, −24 h pretreatment ASN vehicle or REMD2.59c 7 mg/kg i.p., mean ± sd, n=3; for 2 h Glucose: 2 h after single p.o. dose (BYL719 50, BKM120 50, GDC-0980 10, MK2206 150, GSK690693 30, GDC-0068 10 or 100, OSI-906 100 mg/kg); for 4 h Glucose: 4 h after single p.o. dose (same doses as 2 h)
[5] = biological target: PI4Kβ (Homo sapiens, UniProt Q9UBF8); settings: read-out: Target Selectivity (IC50) PI4Kβ; cited from earlier work
[6] = biological target: DNAPK (Homo sapiens, UniProt P78527); settings: read-out: Target Selectivity (IC50) DNAPK; cited from earlier work
[7] = biological target: mTOR (Homo sapiens, UniProt P42345); settings: read-out: Target Selectivity (IC50) mTOR; cited from earlier work
[8] = biological target: VPS34 (Homo sapiens, UniProt Q8NEB9); settings: read-out: Target Selectivity (IC50) VPS34; cited from earlier work
[9] = biological target: p70S6K (Homo sapiens, UniProt P23443); settings: read-out: Target Selectivity (IC50) p70S6K; cited from earlier work
Sequence of p70S6K (P23443 whole entry): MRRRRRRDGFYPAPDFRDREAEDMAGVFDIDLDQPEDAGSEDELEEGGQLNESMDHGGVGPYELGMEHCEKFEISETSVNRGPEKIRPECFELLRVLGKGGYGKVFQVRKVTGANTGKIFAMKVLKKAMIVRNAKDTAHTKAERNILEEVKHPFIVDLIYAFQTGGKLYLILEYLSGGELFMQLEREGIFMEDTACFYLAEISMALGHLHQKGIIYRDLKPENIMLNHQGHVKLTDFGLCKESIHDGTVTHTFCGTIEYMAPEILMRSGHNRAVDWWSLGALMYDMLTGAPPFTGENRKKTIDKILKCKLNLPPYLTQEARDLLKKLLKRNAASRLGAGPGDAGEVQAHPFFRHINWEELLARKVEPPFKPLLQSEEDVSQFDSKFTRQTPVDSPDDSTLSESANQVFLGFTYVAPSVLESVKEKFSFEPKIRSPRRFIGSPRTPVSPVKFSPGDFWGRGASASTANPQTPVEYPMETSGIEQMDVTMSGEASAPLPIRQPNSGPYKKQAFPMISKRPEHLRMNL

[10] = system: CD-17 scid mice; settings: cited from earlier work; for effect on GSK690693-induced hyperglycemia: CD-17 scid mice
[11] = system: BALB/c athymic nude mice; test: Glucose and insulin response to MK2206 with/without REMD2.59c pretreatment in BALB/c athymic nude mice (MiaPaCa2 tumor bearing or naive); type: in vivo, mouse; settings: for −0.5 h Glucose: 0.5 h before MK2206 dosing
[12] = system: patients with type 1 diabetes; settings: single dose 70 mg subcutaneous; cited from earlier work

Sequence of CSF1R (P07333 20-972, species assumed): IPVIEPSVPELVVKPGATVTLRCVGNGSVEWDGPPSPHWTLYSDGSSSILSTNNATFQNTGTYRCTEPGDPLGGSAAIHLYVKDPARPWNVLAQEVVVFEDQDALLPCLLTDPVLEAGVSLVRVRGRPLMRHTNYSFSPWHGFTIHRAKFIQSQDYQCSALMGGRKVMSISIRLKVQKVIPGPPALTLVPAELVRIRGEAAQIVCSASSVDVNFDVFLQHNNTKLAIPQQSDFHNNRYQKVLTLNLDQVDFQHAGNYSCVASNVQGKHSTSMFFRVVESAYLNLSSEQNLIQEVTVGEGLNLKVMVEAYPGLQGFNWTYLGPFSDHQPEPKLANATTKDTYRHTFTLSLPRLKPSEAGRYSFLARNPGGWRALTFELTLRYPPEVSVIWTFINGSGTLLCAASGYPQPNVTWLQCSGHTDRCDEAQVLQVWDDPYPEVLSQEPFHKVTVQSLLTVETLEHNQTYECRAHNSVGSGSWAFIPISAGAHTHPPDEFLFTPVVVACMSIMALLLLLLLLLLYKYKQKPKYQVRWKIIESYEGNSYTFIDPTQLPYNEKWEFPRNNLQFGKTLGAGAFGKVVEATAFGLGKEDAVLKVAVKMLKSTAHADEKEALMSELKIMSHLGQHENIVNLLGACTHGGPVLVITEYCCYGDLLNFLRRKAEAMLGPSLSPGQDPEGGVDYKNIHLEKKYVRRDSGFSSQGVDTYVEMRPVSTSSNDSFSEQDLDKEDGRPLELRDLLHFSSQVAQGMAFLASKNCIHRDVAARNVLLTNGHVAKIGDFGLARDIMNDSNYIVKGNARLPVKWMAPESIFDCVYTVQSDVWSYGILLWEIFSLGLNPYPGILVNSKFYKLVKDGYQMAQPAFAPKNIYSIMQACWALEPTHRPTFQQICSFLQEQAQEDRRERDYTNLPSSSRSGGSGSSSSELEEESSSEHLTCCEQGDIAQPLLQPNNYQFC

For `Nc1cc(C(F)(F)F)c(-c2cc(N3CCOCC3)nc(N3CCOCC3)n2)cn1` [BKM120, buparlisib], the IC50 [1] is listed as 0.582 µM, the “efficacy in Phase I/II clinical trials” value [2] is listed as “minimal” and the “hyperglycemia and hyperinsulinemia in Phase I/II clinical trials” value (“hyperglycemia and hyperinsulinemia” below) [2] is listed as “consistently observed”. The IC50 [3] was 8.09 µM, the “2 h Glucose” value [4] was 15.7 ± 2.5 mM and the “4 h Glucose” value [4] was 9.1 ± 1.3 mM.
In the case of `Cc1nc(NC(=O)N2CCC[C@H]2C(N)=O)sc1-c1ccnc(C(C)(C)C(F)(F)F)c1` [BYL719, alpelisib], the IC50 [5] is given as 0.581 µM, the IC50 [6] is given as 9.1 µM and the IC50 [7] is given as 9.1 µM. The “efficacy in Phase I/II clinical trials” value [2] was “minimal”, the “hyperglycemia and hyperinsulinemia” value [2] was “consistently observed” and the IC50 [3] was 15 µM. For the same compound, the IC50 [8] was 9.1 µM, the “2 h Glucose” value [4] was 17.4 ± 1.4 mM and the “4 h Glucose” value [4] was 11.9 ± 3.3 mM.
In the case of `CC(C)NC[C@@H](C(=O)N1CCN(c2ncnc3c2[C@H](C)C[C@H]3O)CC1)c1ccc(Cl)cc1` [GDC-0068, ipatasertib], the IC50 [9] is given as 0.862 µM, the “2 h Glucose” value [4] is given as 28.4 ± 2.0 mM and the “4 h Glucose” value [4] is given as 25.9 ± 1.2 mM.
For `Cc1c(CN2CCN(C(=O)[C@H](C)O)CC2)sc2c(N3CCOCC3)nc(-c3cnc(N)nc3)nc12` [GDC-0980, apitolisib], the “2 h Glucose” value [4] was 27.0 ± 1.8 mM and the “4 h Glucose” value [4] was 20.5 ± 0.9 mM.
In the case of `CCn1c(-c2nonc2N)nc2c(C#CC(C)(C)O)ncc(OC[C@H]3CCCNC3)c21` [GSK690693], the induction of hyperglycemia ([10]; mouse, in vivo) is listed as “potently induces”, the “2 h Glucose” value [4] is listed as 27.1 ± 2.6 mM and the “4 h Glucose” value [4] is listed as 21.2 ± 1.5 mM.
With `NC1(c2ccc(-c3nc4ccn5c(=O)[nH]nc5c4cc3-c3ccccc3)cc2)CCC1` [MK2206] the “glucose levels after 2 h treatment” value ([11]; BALB/c nude mice, MK2206 150 mg/kg p.o.) was “not increased”, the “increase in serum insulin after 2 h treatment” value ([11]; BALB/c nude tumor bearing mice, MK2206 150 mg/kg p.o., statistically significant) was 65.5 fold and the “4 h Insulin” value ([11]; Table 4 (glucose table), MiaPaCa2 tumor bearing BALB/c nude mice, 4 h after MK2206 150 mg/kg p.o.) was 4.9 ± 0.8 ng/mL. The “4 h Insulin” value ([11]; Table 4 (glucose table), naive (tumor-free) BALB/c nude mice, 4 h after MK2206 150 mg/kg) was 5.7 ± 1.0 ng/mL, the “−0.5 h Glucose” value ([11]; Table 4, MiaPaCa2 tumor bearing BALB/c nude mice, 24 h after ASN or REMD2.59c, mean ± sd, n=3) was 5.6 ± 0.8 mM and the “2 h Glucose” value ([11]; Table 4, MiaPaCa2 tumor bearing BALB/c nude mice, 2 h after MK2206 150 mg/kg p.o.) was 5.5 ± 1.0 mM. For the same compound, the “−0.5 h Glucose” value ([11]; Table 4, naive (tumor-free) BALB/c nude mice, no pretreatment) was 5.7 ± 0.9 mM, the “2 h Glucose” value ([11]; Table 4, naive (tumor-free) BALB/c nude mice, 2 h after MK2206 150 mg/kg) was 5.8 ± 0.5 mM and the “2 h Glucose” value ([11]; Table 5 (insulin table), MiaPaCa2 tumor bearing BALB/c nude mice, 2 h after MK2206 150 mg/kg p.o.) was 26.2 ± 19.4 mM. The “4 h Insulin” value ([11]; Table 5, MiaPaCa2 tumor bearing BALB/c nude mice, 4 h after MK2206 150 mg/kg p.o.) was 7.1 ± 2.1 ng/mL, the “efficacy in Phase I/II clinical trials” value [2] was “minimal” and the “hyperglycemia and hyperinsulinemia” value [2] was “consistently observed”. For the same compound, the “2 h Glucose” value [4] was 20.1 ± 0.8 mM and the “4 h Glucose” value [4] was 9.6 ± 1.3 mM.
With `C[C@]1(O)C[C@@H](c2nc(-c3ccc4ccc(-c5ccccc5)nc4c3)c3c(N)nccn32)C1` [OSI-906, linsitinib] the “2 h Glucose” value [4] was 29.3 ± 1.7 mM and the “4 h Glucose” value [4] was 23.4 ± 1.5 mM.
For `CN(C)C(=N)N=C(N)N` [metformin], the “effect on GSK690693-induced hyperglycemia” value (from here on “effect”) [10] is listed as “not prevented or reduce”.
In the case of `N#C[C@@H]1CCCN1C(=O)CNC12CC3CC(CC(O)(C3)C1)C2` [vildagliptin], the “effect” value [10] is given as “not prevented or reduce”.
For Exendin-4, the “effect” value [10] is listed as “not prevented or reduce”.
For “REMD-477: fully human anti-GCGR monoclonal antibody, heavy chain SEQ ID NO: 49 and light chain SEQ ID NO: 50”, the “amount of insulin needed” value [12] is given as “substantially reduce”, the glucose levels [12] is given as “improve” and the “hypoglycemia (low blood glucose levels)” value [12] is given as “without increasing”.
